Measured values: ChEMBL document CHEMBL4308841, “Synthesis, in vitro antiproliferative activity, and kinase inhibitory effects of pyrazole-containing diarylureas and diarylamides” (Eur J Med Chem, 2018)

Experiments:
[1] = test system: HCT-15; test: Growth inhibition of human HCT15 cells incubated for 48 hrs by sulforhodamine B assay; assay type: functional, cell-based; details: HCT-15, 48 h
[2] = test system: SF-539; test: Growth inhibition of human SF539 cells incubated for 48 hrs by sulforhodamine B assay; assay type: functional, cell-based; details: SF-539, 48 h
[3] = test system: MCF7; test: Growth inhibition of human MCF7 cells incubated for 48 hrs by sulforhodamine B assay; assay type: functional, cell-based; details: MCF7, 48 h
[4] = test system: CCRF-CEM; test: Growth inhibition of human CCRF-CEM cells assessed as cell growth at 0.01 uM incubated for 48 hrs by sulforhodamine B assay relative to control; assay type: functional; details: read-out: Activity
[5] = test system: KM12; test: Growth inhibition of human KM12 cells assessed as cell growth at 0.01 uM incubated for 48 hrs by sulforhodamine B assay relative to control; assay type: functional; details: KM12, 48 h, read-out: Activity
[6] = test system: SF-295; test: Growth inhibition of human SF295 cells assessed as cell growth at 0.01 uM incubated for 48 hrs by sulforhodamine B assay relative to control; assay type: functional; details: SF-295, 48 h, read-out: Activity
[7] = test system: OVCAR-5; test: Growth inhibition of human OVCAR5 cells assessed as cell growth at 0.01 uM incubated for 48 hrs by sulforhodamine B assay relative to control; assay type: functional; details: OVCAR-5, 48 h, read-out: Activity
[8] = test system: MCF7; test: Growth inhibition of human MCF7 cells assessed as cell growth at 0.01 uM incubated for 48 hrs by sulforhodamine B assay relative to control; assay type: functional; details: MCF7, 48 h, read-out: Activity
[9] = test system: RPMI-8226; test: Growth inhibition of human RPMI8226 cells assessed as cell growth at 0.1 uM incubated for 48 hrs by sulforhodamine B assay relative to control; assay type: functional; details: RPMI-8226, 48 h, read-out: Activity
[10] = test system: NCI-H226; test: Growth inhibition of human NCI-H226 cells assessed as cell growth at 0.1 uM incubated for 48 hrs by sulforhodamine B assay relative to control; assay type: functional; details: NCI-H226, 48 h, read-out: Activity
[11] = test system: SW-620; test: Growth inhibition of human SW620 cells assessed as cell growth at 0.1 uM incubated for 48 hrs by sulforhodamine B assay relative to control; assay type: functional; details: SW-620, 48 h, read-out: Activity
[12] = test system: SF-268; test: Growth inhibition of human SF268 cells assessed as cell growth at 0.1 uM incubated for 48 hrs by sulforhodamine B assay relative to control; assay type: functional; details: SF-268, 48 h, read-out: Activity
[13] = test system: MDA-MB-435; test: Growth inhibition of human MDA-MB-435 cells assessed as cell growth at 0.1 uM incubated for 48 hrs by sulforhodamine B assay relative to control; assay type: functional; details: MDA-MB-435, 48 h, read-out: Activity
[14] = test system: OVCAR-3; test: Growth inhibition of human OVCAR3 cells assessed as cell growth at 0.1 uM incubated for 48 hrs by sulforhodamine B assay relative to control; assay type: functional; details: OVCAR-3, 48 h, read-out: Activity
[15] = test system: RXF 393; test: Growth inhibition of human RXF393 cells assessed as cell growth at 0.1 uM incubated for 48 hrs by sulforhodamine B assay relative to control; assay type: functional; details: RXF 393, 48 h, read-out: Activity
[16] = test system: T47D; test: Growth inhibition of human T47D cells assessed as cell growth at 0.1 uM incubated for 48 hrs by sulforhodamine B assay relative to control; assay type: functional; details: read-out: Activity
[17] = test system: HCT-15; test: Growth inhibition of human HCT15 cells assessed as cell growth at 1 uM incubated for 48 hrs by sulforhodamine B assay relative to control; assay type: functional; details: HCT-15, 48 h, read-out: Activity
[18] = test system: IGROV-1; test: Growth inhibition of human IGROV1 cells assessed as cell growth at 1 uM incubated for 48 hrs by sulforhodamine B assay relative to control; assay type: functional; details: IGROV-1, 48 h, read-out: Activity
[19] = test system: OVCAR-3; test: Growth inhibition of human OVCAR3 cells assessed as cell growth at 1 uM incubated for 48 hrs by sulforhodamine B assay relative to control; assay type: functional; details: OVCAR-3, 48 h, read-out: Activity
[20] = test system: OVCAR-4; test: Growth inhibition of human OVCAR4 cells assessed as cell growth at 1 uM incubated for 48 hrs by sulforhodamine B assay relative to control; assay type: functional; details: OVCAR-4, 48 h, read-out: Activity
[21] = test system: 786-0; test: Growth inhibition of human 786-0 cells assessed as cell growth at 1 uM incubated for 48 hrs by sulforhodamine B assay relative to control; assay type: functional; details: 786-0, 48 h, read-out: Activity
[22] = test system: SN12C; test: Growth inhibition of human SN12C cells assessed as cell growth at 1 uM incubated for 48 hrs by sulforhodamine B assay relative to control; assay type: functional; details: read-out: Activity
[23] = test system: UO-31; test: Growth inhibition of human UO31 cells assessed as cell growth at 1 uM incubated for 48 hrs by sulforhodamine B assay relative to control; assay type: functional; details: UO-31, 48 h, read-out: Activity
[24] = test system: Hs-578T; test: Growth inhibition of human Hs578T cells assessed as cell growth at 1 uM incubated for 48 hrs by sulforhodamine B assay relative to control; assay type: functional; details: read-out: Activity
[25] = test system: K562; test: Growth inhibition of human K562 cells assessed as cell growth at 100 uM incubated for 48 hrs by sulforhodamine B assay relative to control; assay type: functional; details: K562, 48 h, read-out: Activity
[26] = test system: COLO 205; test: Growth inhibition of human COLO205 cells assessed as cell growth at 100 uM incubated for 48 hrs by sulforhodamine B assay relative to control; assay type: functional; details: COLO 205, 48 h, read-out: Activity
[27] = test system: KM12; test: Growth inhibition of human KM12 cells assessed as cell growth at 100 uM incubated for 48 hrs by sulforhodamine B assay relative to control; assay type: functional; details: KM12, 48 h, read-out: Activity
[28] = test system: LOX IMVI; test: Growth inhibition of human LOXIMVI cells assessed as cell growth at 100 uM incubated for 48 hrs by sulforhodamine B assay relative to control; assay type: functional; details: read-out: Activity
[29] = test system: A498; test: Growth inhibition of human A498 cells assessed as cell growth at 100 uM incubated for 48 hrs by sulforhodamine B assay relative to control; assay type: functional; details: A498, 48 h, read-out: Activity
[30] = test system: RXF 393; test: Growth inhibition of human RXF393 cells assessed as cell growth at 100 uM incubated for 48 hrs by sulforhodamine B assay relative to control; assay type: functional; details: RXF 393, 48 h, read-out: Activity
[31] = test system: BT-549; test: Growth inhibition of human BT549 cells assessed as cell growth at 100 uM incubated for 48 hrs by sulforhodamine B assay relative to control; assay type: functional; details: BT-549, 48 h, read-out: Activity
[32] = test system: T47D; test: Growth inhibition of human T47D cells assessed as cell growth at 100 uM incubated for 48 hrs by sulforhodamine B assay relative to control; assay type: functional; details: read-out: Activity
[33] = read-out: LC50 (the source's name)
[34] = read-out: pLC50 (the source's name) (converted)

Compound: COc1cc(Cl)cc(-c2nn(-c3cccc(NC(=O)c4ccc(N5CCOCC5)c(C(F)(F)F)c4)c3)cc2-c2ccncc2)c1
- GI50 ([1]; read-out: GI50): 3.25 µM
- CC50 [1, 33]: > 100 µM
- TGI ([1]; read-out: TGI): > 100 µM
- GI50 ([1]; read-out: pGI50 (converted)): 3.24 µM
- CC50 [1, 34]: > 100 µM
- TGI ([1]; read-out: pTGI (converted)): > 100 µM
- GI50 ([2]; read-out: GI50): 3.74 µM
- CC50 [2, 33]: > 100 µM
- TGI ([2]; read-out: TGI): > 100 µM
- GI50 ([2]; read-out: pGI50 (converted)): 3.72 µM
- CC50 [2, 34]: > 100 µM
- TGI ([2]; read-out: pTGI (converted)): > 100 µM
- GI50 ([3]; read-out: GI50): 5.71 µM
- LC50 ([3]; read-out: LC50): > 100 µM
- TGI ([3]; read-out: TGI): > 100 µM
- GI50 ([3]; read-out: pGI50 (converted)): 8.71 µM
- LC50 ([3]; read-out: pLC50 (converted)): > 100 µM
- TGI ([3]; read-out: pTGI (converted)): > 100 µM
- growth at 0.01 µM [4]: 96%
- growth at 0.01 µM [5]: 96%
- growth at 0.01 µM [6]: 90%
- growth at 0.01 µM [7]: 94%
- growth at 0.01 µM [8]: 91%
- growth at 0.1 µM [9]: 107%
- growth at 0.1 µM [10]: 98%
- growth at 0.1 µM [11]: 101%
- growth at 0.1 µM [12]: 94%
- growth at 0.1 µM [13]: 98%
- growth at 0.1 µM [14]: 107%
- growth at 0.1 µM [15]: 100%
- growth at 0.1 µM [16]: 95%
- growth at 1 µM [17]: 52%
- growth at 1 µM [18]: 104%
- growth at 1 µM [19]: 100%
- growth at 1 µM [20]: 94%
- growth at 1 µM [21]: 74%
- growth at 1 µM [22]: 89%
- growth at 1 µM [23]: 52%
- growth at 1 µM [24]: 81%
- growth at 100 µM [25]: 2%
- growth at 100 µM [26]: 38%
- growth at 100 µM [27]: 20%
- growth at 100 µM [28]: 25%
- growth at 100 µM [29]: 24%
- growth at 100 µM [30]: -10%
- growth at 100 µM [31]: 49%
- growth at 100 µM [32]: 33%
